Among the test systems are COLO 205 colon; OVCAR-5 ovarian; SK-MEL-5 melanoma; HS 578T breast; OVCAR-4 ovarian; CCRF-CEM leukemia; MDA-MB-435; RXF 393 renal; CAKI-1 renal; ACHN renal.
What all share (assay): DTP human tumour cell line panel, 48 h

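In this assay, cells in 96-well plates receive the compound at five concentrations for 48 hours. Endpoints are linearly interpolated between the surrounding concentrations. The concentration for 50% growth inhibition is given as GI50. TGI: total growth inhibition.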

Broadly, the GI50 is the concentration that inhibits growth by half. As usually defined, the TGI is the concentration at which net growth stops. As for `Cc1cc([C@H](C)Nc2nccc(N3C(=O)OC[C@@H]3[C@H](C)F)n2)ncc1-c1ccnc(C(F)(F)F)c1`, the GI50 with COLO 205 colon is 21.9 µM; with OVCAR-5 ovarian, greater than 100 µM; in the experiment on SK-MEL-5 melanoma, 12.1 µM; with HS 578T breast, 39.2 µM; in the experiment with OVCAR-4 ovarian, 31.2 µM; in the experiment on CCRF-CEM leukemia, 38.1 µM. Besides, the GI50 in the experiment with MDA-MB-435 was 41.1 µM; in the experiment with RXF 393 renal, 11.3 µM; in the experiment on CAKI-1 renal it was 27.8 µM; with ACHN renal, 24.7 µM. The TGI in the experiment with COLO 205 colon was 62.9 µM; in the experiment with OVCAR-5 ovarian, greater than 100 µM; with SK-MEL-5 melanoma, 33 µM; with HS 578T breast, greater than 100 µM; in the experiment on OVCAR-4 ovarian, greater than 100 µM; with CCRF-CEM leukemia, greater than 100 µM. Also, the TGI was greater than 100 µM in the experiment on MDA-MB-435, 86.4 µM in the experiment with RXF 393 renal, greater than 100 µM in the experiment on CAKI-1 renal and greater than 100 µM with ACHN renal.
With `CCOC(=O)C(=Cc1c(-c2ccccc2)[nH]c2ccccc12)C(=O)OCC`, the GI50 in the experiment on COLO 205 colon was 4.81 µM; in the experiment on OVCAR-5 ovarian it was 13.4 µM; in the experiment on SK-MEL-5 melanoma, 3.81 µM; in the experiment on HS 578T breast, 3.53 µM; in the experiment with OVCAR-4 ovarian it was 5.49 µM; with CCRF-CEM leukemia, 2.58 µM. Further, the GI50 was 3.36 µM with MDA-MB-435, 3.1 µM in the experiment with RXF 393 renal, 8.26 µM in the experiment on CAKI-1 renal and 4.34 µM in the experiment with ACHN renal. For the same molecule, the TGI is 16.3 µM in the experiment with COLO 205 colon; 41.8 µM in the experiment with OVCAR-5 ovarian; 14.2 µM in the experiment on SK-MEL-5 melanoma; 28.8 µM in the experiment on HS 578T breast; greater than 76.5 µM with OVCAR-4 ovarian; 9.75 µM with CCRF-CEM leukemia. Further, the TGI in the experiment with MDA-MB-435 is 13.6 µM; in the experiment with RXF 393 renal it was 12.1 µM; in the experiment with CAKI-1 renal it was greater than 49.8 µM; with ACHN renal, 23.6 µM.
On to `COC12C=C/C(=C(/C(=O)OCc3csc(SC)n3)C(=O)CCCCCCCCC3(OC)C=C/C(=C(/C(=O)OCc4cnc(SC)s4)C(=O)CCCCCCCC1)O3)O2` (centres undefined), for which the GI50 was 3.44 µM with COLO 205 colon; 7.63 µM in the experiment on OVCAR-5 ovarian; 1.7 µM in the experiment with SK-MEL-5 melanoma; 4.52 µM in the experiment on HS 578T breast; 3.19 µM in the experiment with OVCAR-4 ovarian; 0.455 µM in the experiment with CCRF-CEM leukemia. Moreover, the GI50 in the experiment with MDA-MB-435 was 1.68 µM; in the experiment on RXF 393 renal, 1.75 µM; in the experiment with CAKI-1 renal, 70 µM; with ACHN renal, 2.51 µM. In addition, the TGI with COLO 205 colon is greater than 100 µM; in the experiment with OVCAR-5 ovarian, greater than 100 µM; in the experiment on SK-MEL-5 melanoma it was 3.56 µM; in the experiment with HS 578T breast, 57.6 µM; in the experiment with OVCAR-4 ovarian, greater than 100 µM; in the experiment with CCRF-CEM leukemia, greater than 100 µM. Also, the TGI is 5.32 µM with MDA-MB-435, 3.52 µM in the experiment on RXF 393 renal, greater than 100 µM in the experiment with CAKI-1 renal and 28.9 µM in the experiment with ACHN renal.
`COc1ccc(-c2nn(-c3cccc(Cl)c3)cc2/C=C2\C(=N)N(c3ccccc3)N=C2N)cc1`: the GI50 with COLO 205 colon is 1.83 µM; with OVCAR-5 ovarian it was 2.08 µM; in the experiment on SK-MEL-5 melanoma, 2.16 µM; in the experiment on HS 578T breast it was 19.6 µM; in the experiment with OVCAR-4 ovarian it was 2.13 µM; in the experiment with CCRF-CEM leukemia, 0.655 µM. The GI50 in the experiment with MDA-MB-435 was 0.495 µM; in the experiment on RXF 393 renal it was 17.5 µM; with CAKI-1 renal it was 0.229 µM; with ACHN renal, 0.95 µM. Also, the TGI with COLO 205 colon is 3.92 µM; with OVCAR-5 ovarian, greater than 65.9 µM; in the experiment on SK-MEL-5 melanoma, 7.73 µM; with HS 578T breast, greater than 100 µM; with OVCAR-4 ovarian, greater than 89.1 µM; with CCRF-CEM leukemia, greater than 58.7 µM. Further, the TGI in the experiment with MDA-MB-435 was 21.2 µM; in the experiment with RXF 393 renal, greater than 80.6 µM; with CAKI-1 renal it was 0.844 µM; in the experiment on ACHN renal it was 42.6 µM.
Turning to `NC(=O)c1c(NC(=O)c2cccc(C(F)(F)F)c2)sc2c1CCC(=O)C2`, the GI50 with COLO 205 colon is 0.437 µM; in the experiment with OVCAR-5 ovarian, 0.83 µM; in the experiment with SK-MEL-5 melanoma it was 1.18 µM; in the experiment with HS 578T breast, 0.545 µM; with OVCAR-4 ovarian, 0.292 µM; with CCRF-CEM leukemia it was 0.163 µM. For the same molecule, the GI50 in the experiment on MDA-MB-435 is 0.622 µM; in the experiment with RXF 393 renal, 0.352 µM; in the experiment on CAKI-1 renal it was 0.351 µM; with ACHN renal, 0.322 µM. In addition, the TGI was 1.8 µM in the experiment on COLO 205 colon; 9.42 µM with OVCAR-5 ovarian; 2.95 µM in the experiment on SK-MEL-5 melanoma; greater than 100 µM in the experiment on HS 578T breast; 1.25 µM with OVCAR-4 ovarian; 7.68 µM in the experiment on MDA-MB-435. For the same molecule, the TGI in the experiment on RXF 393 renal came out at 2.92 µM; in the experiment on CAKI-1 renal it was 7.29 µM; with ACHN renal, 1.05 µM.
Turning to `COC(=O)C1=C(C(=O)OC)C(C(=O)OC)C(C(=O)OC)C(C(=O)OC)(C(=O)OC)C(C(=O)OC)=C1C(=O)OC` (centres undefined), the concentration for total growth inhibition (TGI) in the experiment on COLO 205 colon was 16.8 µM; in the experiment on OVCAR-5 ovarian, 35.3 µM; in the experiment on SK-MEL-5 melanoma, 31.6 µM; in the experiment on HS 578T breast, 75.3 µM; with OVCAR-4 ovarian, greater than 52 µM; with CCRF-CEM leukemia it was 8.72 µM. Also, the TGI in the experiment on MDA-MB-435 amounted to 37.5 µM; in the experiment on RXF 393 renal it was 16.7 µM; in the experiment with CAKI-1 renal, 36.7 µM; with ACHN renal it was 28.4 µM.
For the molecule `C#CCn1cc(C=C2C(=O)NC(=S)NC2=O)c2cc(Cl)ccc21`, the GI50 with COLO 205 colon is 2.22 µM; in the experiment with OVCAR-5 ovarian, 1.96 µM; in the experiment on SK-MEL-5 melanoma it was 1.81 µM; in the experiment with HS 578T breast it was 2.34 µM; in the experiment with OVCAR-4 ovarian, 2.28 µM; with CCRF-CEM leukemia it was 2.32 µM. The GI50 was 1.92 µM with MDA-MB-435, 1.84 µM in the experiment with RXF 393 renal, 1.84 µM in the experiment on CAKI-1 renal and 1.97 µM in the experiment with ACHN renal. Also, the TGI in the experiment with COLO 205 colon was 5.28 µM; in the experiment on OVCAR-5 ovarian, 4.12 µM; in the experiment with SK-MEL-5 melanoma, 3.31 µM; with HS 578T breast, 7.6 µM; with OVCAR-4 ovarian it was 7.01 µM; with CCRF-CEM leukemia, 6.45 µM. In addition, the TGI in the experiment with MDA-MB-435 is 4.36 µM; in the experiment on RXF 393 renal, 3.65 µM; with CAKI-1 renal, 4.06 µM; in the experiment on ACHN renal, 4.07 µM.
For `CC(C)(C)OC(=O)n1c(Cl)c(C(=O)N=C=S)c2ccccc21`, the GI50 with COLO 205 colon is 33.6 µM; with OVCAR-5 ovarian it was 23 µM; in the experiment on SK-MEL-5 melanoma, 18.8 µM; with HS 578T breast, 25.5 µM; in the experiment on OVCAR-4 ovarian, greater than 100 µM; with CCRF-CEM leukemia, 35.5 µM. Further, the GI50 with MDA-MB-435 is 80.8 µM; with RXF 393 renal, 53.4 µM; in the experiment on CAKI-1 renal, 34.6 µM; in the experiment with ACHN renal, 29.5 µM. For the same molecule, the TGI was greater than 100 µM in the experiment on COLO 205 colon; 94.3 µM in the experiment with OVCAR-5 ovarian; 40.1 µM in the experiment on SK-MEL-5 melanoma; 68.2 µM in the experiment on HS 578T breast; greater than 100 µM in the experiment with OVCAR-4 ovarian; greater than 100 µM with CCRF-CEM leukemia. The TGI is greater than 100 µM in the experiment on MDA-MB-435, greater than 100 µM in the experiment with RXF 393 renal, 92 µM with CAKI-1 renal and greater than 100 µM with ACHN renal.

Source of the values: PubChem BioAssay (NCI).
